According to US20070049538A1, “METHODS FOR USING CUCURBITACIN COMPOUNDS” (SOUTH DAKOTA STATE UNIVERSITY, priority 2005, published 2007):

Columns and labels:
[1] = Chromatographic hydrophobicity index (CHI) by RP-HPLC in buffered methanol; type: physicochemical; settings: for CHIMeOH (b): standard compounds, isochratic and gradient elution of standard mixture; for CHIMeOH: buffered methanol pH 7.0, Econosil C18 150 mm, Eq. (4)
Protocol: (§1) We used Dynamax liquid chromatograph (Varian Chromatography Systems) with PDA-2 photodiode array UV detector, controlled by the Dynamax PC Chromatography Data System (v. 1.9) software and Dynamax dual pump solvent delivery system, model SD-200. […] Cucurbitacins analytical separation was optimized on Alltima C18 (Alltech; 250 mm×4.6 mm, 5 μm) HPLC column, at gradient elution in acetonitrile (ACN, 30-70% ACN in 57 min), and in MeOH (60-75% MeOH in 50 min). Cucurbitacins stock concentration of 10^−2M in DMSO:ethanol (1:1) was standardized against pure cucurbitacin I (Indofine Chemical Company, Hillsborough, N.J.) by analytical HPLC means. Compounds CHI was measured in both ACN, by using Alltima C18 column, and in MeOH, by using Econosil C18 column (Alltech; 150 mm×4.6 mm, 5 μm). Analytical separations were conducted at a flow rate of 1 ml/min. The aqueous phase was buffered for the CHI measurement. For this purpose, solid ammonium acetate (Fisher Sci. Co., Fair Lawn, N.J.) was dissolved in deionized distilled water at 50 mM final concentration and its pH adjusted to 7.0.
A standard mixture of 10 compounds including 19-21, 23-27, aniline (compound 28) and bromobenzene (compound 29), dissolved in MeOH, was injected at five isochratic elution, at 40, 45, 50, 55, and 60% MeOH. Then the mixture was injected at fast gradient elution to establish the correlation from Eq. (1). The fast linear gradient elution was optimized for 30-100% MeOH in aqueous buffer with 10 min runtime.
(§2) Cucurbitacins lipophilicity was measured by RP-HPLC. […] Due to its high viscosity, aqueous MeOH required a shorter column than the one applied for ACN. First, the C18 columns were calibrated against a standard mixture, and the relationships established between the fast gradient tR and φ0 or published CHI (see Eqs. (2)-(4) from Table 2). Second, cucurbitacins were injected at fast gradient elution under similar conditions, and their CHI calculated (Table 4) from Eqs. (2)-(4). Eqs.

[2] = standard compounds; gradient elution and correlation with published data; cited from earlier work
HepG2 cells [3] = assay: Cucurbitacins cytotoxicity on HepG2 cells (MTT viability assay); type: cell-based, human
Protocol: HepG2 (human hepatocellular carcinoma, ATCC) cells were grown in EMEM (Gibco, Grand Island, N.Y.) supplemented with 10% fetal bovine serum (FBS), and 1% penicillin/fungizone mixture (Gibco). Thabrew's optimized procedure (Thabrew et al., J. Pharm. Pharmcol. 49 (1994) 1442, the entire disclosure of which is herein incorporated by reference) was followed. Cells were batch cultured for 10 days, then seeded at concentration of 30,000 cells/well in fresh media in 96-well microtiter plastic plates at 37° C. for a day. Then cells were exposed to different concentrations of cucurbitacins at final volume of 100 μl/well. Five-fold serial dilution of compounds was carried out in the plate for five consecutive wells. After 24 h of incubation with chemicals, live cells were visualized using the MTT viability assay (Promega, Madison, Wis.). The absorbance was measured at 570 nm. Negative (without cells) and positive (without test chemicals) controls were also incubated with each plate. […] At least three reproducible experiments were performed per compound with three replicate wells per concentration.
Cells were challenged with cu-curbitacins at various concentrations for a day and then live cells quantified with MTT dye. This period of time measures exclusively compounds cytotoxicity, while longer incubation time may lead to interference from metabolites.

[4] = Chromatographic hydrophobicity index (CHI) by RP-HPLC in buffered acetonitrile; type: physicochemical; set-up: key: CHI = φ0 (isocratic hydrophobicity index), = A·tR + B; ACN % scale; settings: for CHIACN1: buffered acetonitrile pH 7.0, Alltima C18 250 mm, Eq. (2) from isocratic φ0; for CHIACN2: buffered acetonitrile pH 7.0, Eq. (3) calibrated against published CHI
Protocol: as §1
All standard compounds were purchased from Acros (Acros Organics, NJ). The chromatographic lipophilicity or hydrophobicity was determined applying Valkó's technique (Valkó et al., Anal. Chem. 69 (1997) 2022, the entire disclosure of which is herein incorporated by reference). A standard mixture of seven compounds was prepared in solution: theophylline (compound 19), benzimidazole (compound 20), acetophenone (compound 21), indole (compound 22), propiophenone (compound 23), butyrophenone (compound 24), and valerophenone (compound 25). […] The retention factor, log k=log((tR-t0)/t0), was calculated for each analyte from five good injections of […] sample. The dead time (t0) was measured by injecting NaNO3 together with the sample. Then, the log k values were plotted against isocratic ACN concentrations to establish the linear regression equations for each analyte. From each straight line the isocratic hydrophobicity index was computed, φ0=(intercept/slope). Further, the calibration mixture was injected at fast gradient elution, 0-22 min 0-100% ACN, and three additional minutes at 100% ACN. The φ0 values for the test compounds were plotted against gradient retention time and the linear equation determined from the following equation: φ0=CHI=AtR+B (1)
The gradient elution conditions were similar to the one from the first approach.
as §2

HSC-T6 cells [5] = assay: Serum-driven HSC-T6 proliferation, experiment 1 (4 h challenge, two days drug-free growth); type: cell-based, rat; settings: for EC50: HSC-T6, 4 h challenge, then two days drug-free media
Protocol: The proliferation effect of serum on HSC-T6 cells was optimized and cucurbitacin antiproliferative activity was measured. Serum contains a large number of growth factors, hormones and other nutrients, which help cells to grow and multiply. Several trials were conducted. In experiment 1, cells were challenged with cucurbitacin analogs for 4 h and then cells were grown in drug-free media for two additional days.
HSC-T6 cells were photographed under phase-contrast microscope to record possible changes in cell morphology during experiment 1. […] We are monitoring specifically the effect of compound on the cells, cell recovery after 4 h challenge, and relative cell proliferation. […] Live cells are quantified at the end of the assay (row 4) with MTT dye.
(§3) We established several experimental conditions such as 4 hours of incubation time with cucurbitacin, and 2 day cell incubation with fresh media after challenging with cucurbitacin (Exp. 1). Other experiments involved addition of cucurbitacin for 24 hours over starved cells (Exp. 2) vs. proliferating cells (Exp. 3), and one day incubation of cells with fresh media after challenge. […] Because of that, the challenge time was increased to 24 hours (Exp. 2 and 3).
We modified this approach. Our assay included a second control (ZC) supplemented with no serum intended to measure cucurbitacin anti-proliferation effect relative to the number of cells generated during challenge instead of the total number of cells present in each well.

HSC-T6 cells [6] = assay: Serum-driven HSC-T6 proliferation, experiment 3 (24 h, proliferating cells); type: cell-based, rat; settings: HSC-T6, 24 h, proliferating cells; read-out: Experiment 3 EC50 (A)
Protocol: To overcome this problem, the amount of incubation time was increased to 24 h, and cucurbitacin activity measured on starved (Exp. 2) or proliferative (Exp. 3) cells (Table 8). Cells turned quiescent when serum was not supplemented for one day (Exp. 2). Activity of a few compounds was monitored on quiescent cells, and their activity compared to the ones measured on proliferating cells (Exp. 3).
as §3, with “challenge. The 4 hour incubation period with cucurbitacin triggered anti-proliferation effect. This effect, however, was hindered by a second cycle of cell proliferation during the two-day cell growth period (see silybin, E and I glucosides, and for I-nPr).” for “challenge.”
In experiment 3, only 40% of the cells divided. The ratio of EC50 values for exp. 2 and exp. 3 varied between 3.6 and 12.7. This may indicate differential cytotoxicity of silybin and cucurbitacin analogs over quiescent and active stellate cells. In other words, compounds show higher anti-proliferative activity on active cells than on quiescent cells.

HSC-T6 cells [7] = assay: Cytotoxicity on HSC-T6 cells (experiment 3); type: cell-based, rat; settings: read-out: Experiment 3 IC50 (T)
From the text: Cytotoxicity of all cucurbitacin analogs was additionally measured in experiment 3 (Table 8).

HepG2 cells [8] = assay: cells; settings: for EC50: read-out: EC50 cytoprotection, Table 7, HepG2 against CCl4 toxicity, estimated
From the text: Experimental conditions were standardized on silybin. […]
The ratio of IC50-to-EC50 (hereafter T/A) is also indicated in this table, which gives the margin between toxic and cytoprotective concentrations.

Row | Compound | CHIMeOH (b) [1] | CHIACN (c) [2] | IC50 (HepG2 cells [3]; Table 4, 24 h incubation, MTT) | IC50 (HepG2 cells [3]; Table 5) | CHIACN1 [4] | CHIACN2 [4] | CHIMeOH [1] | EC50 (HSC-T6 cells [5]) | EC50 (HSC-T6 cells [6]) | IC50 (HSC-T6 cells [7]) | cytoprotection on HepG2 cells (HepG2 cells [8]; at 6.25% of IC50, against CCl4) | cytoprotection on HepG2 cells (HepG2 cells [8]; at 12.5% of IC50, against CCl4) | cytoprotection on HepG2 cells (HepG2 cells [8]; at 20% of IC50, against CCl4) | cytoprotection on HepG2 cells (HepG2 cells [8]; at 50% of IC50, against CCl4) | IC50 (HepG2 cells [3]; Table 7) | EC50 (HepG2 cells [8]) | Experiment 1 anti-proliferation activity (HSC-T6 cells [5]; measured at 100 μM) | Experiment 1 anti-proliferation activity (HSC-T6 cells [5]; measured at 2-6 μM) | CHIACN (b) ([4]; standard compounds, isochratic and gradient elution of standard mixture)
1 | Nc1ccccc1 [Aniline (28), aniline, reference compound] | 29.94 ± 0.05 |  |  |  |  |  |  |  |  |  |  |  |  |  |  |  |  |  | 
2 | COc1cc2c(c(OC)c1OC)-c1ccc(OC)c(=O)cc1[C@@H](NC(C)=O)CC2 [Colchicine (26), colchicine, reference compound] | 57.56 + 0.04 | 41.37 |  |  |  |  |  |  |  |  |  |  |  |  |  |  |  |  | 
3 | CCOC1=CC2C(=CCC3C2(C)C(=O)CC2(C)C(C(C)(O)C(=O)C=CC(C)(C)OC(C)=O)C(O)CC32C)C(C)(C)C1=O (stereo not shown) [E-Et] |  |  | 5.1 µM | 5.1 ± 0.9 µM | 82.76 | 93.73 | 74.25 | 5.6 µM | 0.27 µM | 3.5 µM |  |  |  |  |  |  |  |  | 
4 | CC(=O)OC(C)(C)C=CC(=O)C(C)(O)C1C(O)CC2(C)C3CC=C4C(C=C(OC(C)C)C(=O)C4(C)C)C3(C)C(=O)CC12C (stereo not shown) [E-iPr] |  |  | 4.3 µM | 4.3 ± 0.5 µM | 86.84 | 100.04 | 76.30 | 2.13 µM | 0.32 µM | 2.5 µM | −0.60 ± 1.11 | −7.81 ± 0.68 | −7.00 ± 0.17 | −32.99 ± 1.70 |  |  |  |  | 
5 | CCCOC1=CC2C(=CCC3C2(C)C(=O)CC2(C)C(C(C)(O)C(=O)C=CC(C)(C)OC(C)=O)C(O)CC32C)C(C)(C)C1=O (stereo not shown) [E-nPr] |  |  |  |  | 88.34 | 102.37 | 77.66 | 2.28 µM | 0.34 µM | 2.8 µM |  |  |  |  |  |  |  |  | 
6 | CC(C)(O)/C=C/C(=O)[C@](C)(O)[C@H]1[C@H](O)C[C@@]2(C)[C@@H]3CC=C4[C@@H](C=C(O)C(=O)C4(C)C)[C@]3(C)C(=O)C[C@]12C [I, cucurbitacin I] |  |  | 15.8 µM | 15.8 ± 6.7 µM | 63.27 | 63.53 | 63.86 | 0.36 µM | 0.02 µM | 3.6 µM | 4.55 ± 0.64 | 17.50 ± 1.32 | 50.09 ± 1.02 | 54.75 ± 0.29 | 15.8 µM | 3.2 µM |  |  | 
7 | CC(C)(O)/C=C/C(=O)[C@](C)(O)C1[C@H](O)C[C@@]2(C)C3CC=C4C(C=C(O[C@@H]5O[C@H](CO)[C@@H](O)[C@H](O)[C@H]5O)C(=O)C4(C)C)[C@]3(C)C(=O)C[C@]12C (stereo partly shown) [I-Gluc, cucurbitacin I glucoside] |  |  | 390 ± 10 µM | 390 ± 10 µM | 46.48 | 37.50 | 56.41 |  | 4.15 µM | 256 µM |  |  |  |  |  |  | ˜20%^a^ |  | 
8 | CC(C)OC1=CC2C(=CCC3C2(C)C(=O)CC2(C)C(C(C)(O)C(=O)C=CC(C)(C)O)C(O)CC32C)C(C)(C)C1=O (stereo not shown) [I-iPr] |  |  | 7 ± 1 µM | 7.3 ± 0.6 µM | 73.87 | 79.94 | 71.55 | 3.85 µM | 0.25 µM | 2.5 µM | −17.10 ± 1.54 | 4.15 ± 0.48 | 18.69 ± 0.13 | 41.73 ± 2.06 |  |  |  |  | 
9 | CCCOC1=CC2C(=CCC3C2(C)C(=O)CC2(C)C(C(C)(O)C(=O)C=CC(C)(C)O)C(O)CC32C)C(C)(C)C1=O (stereo not shown) [I-nPr] |  |  | 5 µM | 5 ± 0.5 µM | 75.92 | 83.13 | 72.88 |  | 0.33 µM | 2.5 µM |  |  |  |  |  |  |  | ˜18%^b^ | 
10 | c1ccc2[nH]ccc2c1 [Indole (22), indole, reference compound] |  | 69.15 |  |  |  |  |  |  |  |  |  |  |  |  |  |  |  |  | 67.73 + 0.13
11 | Cn1c(=O)c2nc(-c3ccccc3)[nH]c2n(C)c1=O [Ph-theophylline (27), phenyltheophylline, reference compound] | 61.61 ± 0.04 | 52.04 |  |  |  |  |  |  |  |  |  |  |  |  |  |  |  |  | 
12 | CC(C)(O)/C=C/C(=O)C(C)(O)C1C(O)CC2(C)C3CC=C4C(CC(=O)C(O)C4(C)C)C3(C)C(=O)CC12C (stereo not shown) [iso-D] |  |  | 80.3 µM | 80.3 ± 3.5 µM | 60.59 | 59.37 | 62.27 | 2.13 µM | 0.06 µM | 8.7 µM |  |  |  |  | 80.3 µM | 13.8 µM |  |  | 
